# Source: ChEMBL document CHEMBL1201862, “PubChem BioAssay data set” (2004)
# Calls of active or inactive are those of the source.
# Legend:
# Hexokinase-1 = molecular target: T1, Hexokinase-1 (Homo sapiens, UniProt P19367); assay: HK1 enzyme activation by HKDC1 hits – biochemical, selectivity assay for HKDC1 activator project, dose response (AID 504762); assay type: functional
# T1 sequence (P19367 whole entry): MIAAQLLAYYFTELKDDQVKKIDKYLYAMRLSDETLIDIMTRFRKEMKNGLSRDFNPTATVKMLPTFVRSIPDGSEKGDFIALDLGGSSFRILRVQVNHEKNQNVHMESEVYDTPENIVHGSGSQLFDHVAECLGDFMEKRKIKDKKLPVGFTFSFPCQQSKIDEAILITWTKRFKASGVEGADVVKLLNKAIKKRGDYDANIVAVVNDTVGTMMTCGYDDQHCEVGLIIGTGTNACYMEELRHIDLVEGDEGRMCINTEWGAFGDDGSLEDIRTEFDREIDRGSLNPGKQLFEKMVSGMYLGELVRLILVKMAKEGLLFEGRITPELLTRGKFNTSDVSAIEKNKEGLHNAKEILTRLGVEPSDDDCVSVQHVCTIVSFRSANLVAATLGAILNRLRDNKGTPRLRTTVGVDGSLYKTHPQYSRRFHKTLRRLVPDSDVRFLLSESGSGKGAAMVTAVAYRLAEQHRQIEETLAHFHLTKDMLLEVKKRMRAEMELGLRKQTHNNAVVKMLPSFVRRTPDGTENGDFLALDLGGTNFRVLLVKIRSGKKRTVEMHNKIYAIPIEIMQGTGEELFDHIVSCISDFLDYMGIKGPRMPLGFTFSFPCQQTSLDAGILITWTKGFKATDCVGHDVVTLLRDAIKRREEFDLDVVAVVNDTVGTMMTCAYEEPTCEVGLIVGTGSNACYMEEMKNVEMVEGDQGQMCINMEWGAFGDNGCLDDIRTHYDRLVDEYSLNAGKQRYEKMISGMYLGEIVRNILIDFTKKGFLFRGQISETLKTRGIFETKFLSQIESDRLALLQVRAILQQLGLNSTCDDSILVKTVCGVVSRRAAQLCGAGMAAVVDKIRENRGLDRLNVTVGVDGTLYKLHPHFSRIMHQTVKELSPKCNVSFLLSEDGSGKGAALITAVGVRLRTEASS
# [1] = Trypanosoma cruzi growth suppression in host cells – NIH3T3 host cells, beta-gal luminescence, confirmation (AID 2044); assay type: functional, cell-based;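 note: intracellular parasites grown in NIH/3T3 mouse fibroblasts as host cells; luminescent beta-galactosidase reporter signal from transgenic T. cruzi replicating inside host cells; inhibitors lower the luminescence signal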
# [2] = molecular target: T2, Apoptotic protease-activating factor 1 (Homo sapiens, UniProt O14727); assay type: functional
# T2 sequence (O14727 whole entry): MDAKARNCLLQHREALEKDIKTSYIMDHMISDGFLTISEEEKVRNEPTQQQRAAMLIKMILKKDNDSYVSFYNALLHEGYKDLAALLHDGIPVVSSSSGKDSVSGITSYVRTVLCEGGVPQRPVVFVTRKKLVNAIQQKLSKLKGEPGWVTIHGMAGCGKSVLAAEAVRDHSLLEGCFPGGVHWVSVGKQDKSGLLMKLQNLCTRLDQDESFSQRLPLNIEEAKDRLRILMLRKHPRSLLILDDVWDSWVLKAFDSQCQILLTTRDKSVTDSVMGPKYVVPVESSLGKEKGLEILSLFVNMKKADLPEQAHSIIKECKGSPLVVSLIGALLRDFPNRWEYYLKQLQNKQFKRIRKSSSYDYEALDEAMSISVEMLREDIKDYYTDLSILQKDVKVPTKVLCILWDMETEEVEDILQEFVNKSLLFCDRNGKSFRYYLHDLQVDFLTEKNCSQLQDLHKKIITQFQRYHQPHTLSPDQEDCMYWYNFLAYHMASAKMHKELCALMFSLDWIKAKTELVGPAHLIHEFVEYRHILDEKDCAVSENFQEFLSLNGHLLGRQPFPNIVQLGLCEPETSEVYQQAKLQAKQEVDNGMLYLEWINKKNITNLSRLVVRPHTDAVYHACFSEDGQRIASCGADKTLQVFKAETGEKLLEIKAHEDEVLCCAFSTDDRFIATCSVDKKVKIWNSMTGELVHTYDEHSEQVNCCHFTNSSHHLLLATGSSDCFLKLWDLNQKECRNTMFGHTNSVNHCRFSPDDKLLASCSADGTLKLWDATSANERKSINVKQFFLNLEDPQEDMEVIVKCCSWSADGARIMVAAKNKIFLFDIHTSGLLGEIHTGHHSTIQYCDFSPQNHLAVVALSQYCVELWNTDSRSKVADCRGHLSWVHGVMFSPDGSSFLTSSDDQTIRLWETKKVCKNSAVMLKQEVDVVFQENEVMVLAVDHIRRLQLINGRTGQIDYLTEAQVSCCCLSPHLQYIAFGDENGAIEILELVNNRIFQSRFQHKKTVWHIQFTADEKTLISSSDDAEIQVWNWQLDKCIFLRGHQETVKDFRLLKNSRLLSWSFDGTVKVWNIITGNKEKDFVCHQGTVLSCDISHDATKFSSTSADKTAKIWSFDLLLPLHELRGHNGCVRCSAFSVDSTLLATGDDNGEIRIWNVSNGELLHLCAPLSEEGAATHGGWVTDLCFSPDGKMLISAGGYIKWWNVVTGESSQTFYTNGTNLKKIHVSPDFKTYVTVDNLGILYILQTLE
compound,measurement,setting,value
Clc1ccc(/N=c2\ssnc2Cl)nc1,EC50,Hexokinase-1,65.4 µM (inactive)
same,EC50,[1],1.45 µM (active)
same,IC50,[2],14.3 µM (active)
